Results from US6423689B1, “Peptidyl calcium channel blockers” (Warner-Lambert Company, priority 1997, dated 2002).
*1 amine or outer side, *2 acyl side, *3 side chain or, on linkers, in order; H or OH if unused. Where a SMILES comes first, the peptide text is derived from it. The star is where a group is joined. CO = O=C([*:1])[*:2]; Bn = c1ccc(C*)cc1; OtBu = CC(C)(C)O*

Target: T1, N-type Ca2+ channels in IMR-32 cells (Homo sapiens, UniProt Q00975)
T1 construct: host or cells: IMR-32 cells, differentiated with dibutyryl cAMP and bromodeoxyuridine
Assay: Inhibition of N-type calcium flux in IMR-32 cells (Indo-1 fluorescence, nitrendipine present)
Type: cell-based
Details: for inhibition at 1 µM / inhibition at 10 µM: IMR-32; for IC50: IMR-32 cells, 5 μM nitrendipine, K+ depolarization
Method: Measurement of N-type Ca^2+ Channel Blocking Potencies of Compounds in IMR-32 Cells Using the Fluorescent Ca^2+ Indicator Indo-1
IMR-32 cells are a human tumoral cell line of neural origin. […] Calcium flux into these cells may be induced by stimulation with elevated potassium concentrations. The L-channel component of calcium flux may be blocked by adding 5 μM nitrendipine. The remaining component of calcium entry into the IMR-32 cells is due to calcium flux through N-type calcium channels. Intracellular calcium concentrations are measured using the fluorescent calcium indicator Indo 1. The effect of drug concentration on calcium uptake is studied.
The IMR-32 cell line was obtained from the American Type Culture Collection (Rockville, Md.). Cells were grown in Eagle's Minimum Essential Medium with Eagle's salts supplemented with 10% fetal bovine serum, 2 mM L-Gln and antibiotic/antimycotic mixture (Gibco). […] After 7 to 13 days of differentiation, cells were detached using 0.5 mM EDTA and loaded with 5 μM Indo-1 acetoxymethyl ester (Molecular Probes, Eugene, OR) at […] for 45 minutes. Loaded cells were washed twice, resuspended (˜10^7 cells/mL) in assay buffer (10 mM HEPES/Tris pH 7.4 in Hank's Balanced Salt Solution without bicarbonate or phenol red containing 0.5% bovine serum albumin) and kept on ice until use. Fluorescence measurements were carried out in a Photon Technology International (PTI, South Brunswick, N.J.) Model RF-F3004 spectrofluorometer with dual emission monochromators using excitation at 350 nm and emission at 400 and 490 nm. The instrument was equipped with a thermostated cuvette holder with stirring capabilities as well as with a computer-controlled pump which allowed for reagent addition during measurement. Instrument control and data collection was done by PTI's OSCAR software running on an IBM compatible computer. […] Samples were incubated for 10 minutes at 30° C. and then aliquoted into three 10×10 mm disposable acrylic cuvettes. Emission signals at 400 and 490 nm were acquired from each cuvette at 30° C. for 50 seconds. At 20 seconds after the start of reading, cells were depolarized by the addition of 160 μL of stimulation solution (1M KCl, 68 mM CaCl2) to the cuvette via the computer-controlled pump. Ratio of dual emission signals (400 nm/490 nm), which is proportional to intracellular Ca^2+ concentration, was plotted against time, and the difference between maximal response after stimulation and basal value (before stimulation) was determined. Values obtained in this way were plotted as a function of drug concentration. IC50 values of test compounds were calculated by fitting a four-parameter logistic function to the data using the least squares method.

T1 sequence (Q00975 whole entry): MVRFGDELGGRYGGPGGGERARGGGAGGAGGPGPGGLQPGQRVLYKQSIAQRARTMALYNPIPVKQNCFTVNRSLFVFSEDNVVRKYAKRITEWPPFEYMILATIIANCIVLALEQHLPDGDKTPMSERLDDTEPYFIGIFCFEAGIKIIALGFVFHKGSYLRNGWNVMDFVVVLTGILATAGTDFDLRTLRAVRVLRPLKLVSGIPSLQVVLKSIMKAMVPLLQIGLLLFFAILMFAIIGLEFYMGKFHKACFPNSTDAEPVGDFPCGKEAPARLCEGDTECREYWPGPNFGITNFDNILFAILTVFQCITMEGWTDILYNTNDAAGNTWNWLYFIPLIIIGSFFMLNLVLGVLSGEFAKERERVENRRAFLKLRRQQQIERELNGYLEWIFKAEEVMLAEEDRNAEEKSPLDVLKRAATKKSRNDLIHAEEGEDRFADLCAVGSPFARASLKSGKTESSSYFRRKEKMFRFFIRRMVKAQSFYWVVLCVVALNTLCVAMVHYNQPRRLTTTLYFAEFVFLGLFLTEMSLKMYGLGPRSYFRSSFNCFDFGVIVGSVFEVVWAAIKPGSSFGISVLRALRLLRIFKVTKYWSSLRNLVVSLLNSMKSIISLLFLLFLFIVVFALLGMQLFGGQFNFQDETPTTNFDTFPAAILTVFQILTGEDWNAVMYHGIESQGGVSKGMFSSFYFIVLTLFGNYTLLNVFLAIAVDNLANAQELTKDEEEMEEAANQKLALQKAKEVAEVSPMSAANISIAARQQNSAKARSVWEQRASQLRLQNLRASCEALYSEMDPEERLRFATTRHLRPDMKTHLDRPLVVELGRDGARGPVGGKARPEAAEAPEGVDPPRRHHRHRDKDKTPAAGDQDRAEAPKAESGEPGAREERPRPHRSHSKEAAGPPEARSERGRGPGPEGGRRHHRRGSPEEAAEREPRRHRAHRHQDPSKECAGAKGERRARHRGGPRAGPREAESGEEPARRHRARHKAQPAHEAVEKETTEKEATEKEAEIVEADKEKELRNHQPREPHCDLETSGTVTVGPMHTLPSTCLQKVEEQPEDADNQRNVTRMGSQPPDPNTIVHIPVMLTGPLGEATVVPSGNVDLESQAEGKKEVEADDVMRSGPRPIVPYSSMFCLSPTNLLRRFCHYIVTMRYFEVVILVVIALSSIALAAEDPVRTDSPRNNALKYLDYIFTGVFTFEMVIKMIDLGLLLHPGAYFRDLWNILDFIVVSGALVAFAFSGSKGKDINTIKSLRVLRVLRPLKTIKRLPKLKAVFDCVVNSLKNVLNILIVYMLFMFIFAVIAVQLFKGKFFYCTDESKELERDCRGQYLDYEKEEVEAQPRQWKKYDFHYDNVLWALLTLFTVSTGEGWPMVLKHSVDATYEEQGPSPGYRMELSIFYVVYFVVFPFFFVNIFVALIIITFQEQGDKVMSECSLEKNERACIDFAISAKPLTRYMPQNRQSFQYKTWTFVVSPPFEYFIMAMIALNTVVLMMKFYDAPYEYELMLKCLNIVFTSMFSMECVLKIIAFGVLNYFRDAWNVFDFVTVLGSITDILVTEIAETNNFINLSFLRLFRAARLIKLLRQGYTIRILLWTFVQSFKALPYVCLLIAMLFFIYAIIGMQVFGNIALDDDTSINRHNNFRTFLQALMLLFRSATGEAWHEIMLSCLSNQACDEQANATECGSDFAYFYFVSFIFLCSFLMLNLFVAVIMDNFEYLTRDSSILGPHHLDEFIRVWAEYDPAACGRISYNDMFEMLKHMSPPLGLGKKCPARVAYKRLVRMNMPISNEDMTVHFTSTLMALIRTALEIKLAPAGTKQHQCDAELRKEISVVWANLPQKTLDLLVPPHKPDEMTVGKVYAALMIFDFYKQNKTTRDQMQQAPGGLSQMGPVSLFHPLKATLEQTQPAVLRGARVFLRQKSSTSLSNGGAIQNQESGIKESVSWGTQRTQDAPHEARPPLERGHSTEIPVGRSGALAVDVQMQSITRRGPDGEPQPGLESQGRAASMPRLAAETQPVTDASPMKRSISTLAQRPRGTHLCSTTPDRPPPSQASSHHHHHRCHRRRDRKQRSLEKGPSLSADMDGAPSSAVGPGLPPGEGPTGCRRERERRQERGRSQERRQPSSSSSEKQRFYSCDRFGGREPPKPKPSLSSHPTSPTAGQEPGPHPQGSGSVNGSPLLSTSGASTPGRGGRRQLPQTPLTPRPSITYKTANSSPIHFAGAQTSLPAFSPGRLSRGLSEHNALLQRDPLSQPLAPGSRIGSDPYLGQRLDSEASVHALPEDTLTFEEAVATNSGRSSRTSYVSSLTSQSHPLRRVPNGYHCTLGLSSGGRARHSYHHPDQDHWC
T1 sequence (P54289 25-956 partner limits assumed): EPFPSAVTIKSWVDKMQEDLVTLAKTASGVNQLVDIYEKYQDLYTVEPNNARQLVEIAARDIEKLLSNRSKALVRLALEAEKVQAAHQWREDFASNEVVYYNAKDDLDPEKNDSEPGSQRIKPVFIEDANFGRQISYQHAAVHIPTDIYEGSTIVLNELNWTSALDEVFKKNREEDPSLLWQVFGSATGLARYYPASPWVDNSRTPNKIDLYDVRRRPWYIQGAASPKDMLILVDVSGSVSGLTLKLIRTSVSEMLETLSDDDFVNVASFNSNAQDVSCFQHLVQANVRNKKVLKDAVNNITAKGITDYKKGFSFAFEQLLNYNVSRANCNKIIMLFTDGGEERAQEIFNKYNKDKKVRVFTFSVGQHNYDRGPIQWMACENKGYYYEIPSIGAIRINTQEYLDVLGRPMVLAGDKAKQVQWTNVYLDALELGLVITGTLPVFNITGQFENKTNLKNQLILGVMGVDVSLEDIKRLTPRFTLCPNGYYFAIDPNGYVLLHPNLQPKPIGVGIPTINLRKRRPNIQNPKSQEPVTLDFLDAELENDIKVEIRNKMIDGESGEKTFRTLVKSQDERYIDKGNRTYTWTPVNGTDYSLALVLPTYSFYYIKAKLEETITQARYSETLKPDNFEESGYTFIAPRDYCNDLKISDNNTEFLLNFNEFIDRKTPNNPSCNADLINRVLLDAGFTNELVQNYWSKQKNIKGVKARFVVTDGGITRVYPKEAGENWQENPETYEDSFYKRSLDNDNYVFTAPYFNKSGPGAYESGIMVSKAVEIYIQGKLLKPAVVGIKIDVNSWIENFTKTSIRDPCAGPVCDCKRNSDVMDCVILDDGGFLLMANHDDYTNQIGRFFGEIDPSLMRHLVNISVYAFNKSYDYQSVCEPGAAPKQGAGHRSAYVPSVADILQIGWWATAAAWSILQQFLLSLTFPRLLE
T1 sequence (P54289 957-1103 partner limits assumed): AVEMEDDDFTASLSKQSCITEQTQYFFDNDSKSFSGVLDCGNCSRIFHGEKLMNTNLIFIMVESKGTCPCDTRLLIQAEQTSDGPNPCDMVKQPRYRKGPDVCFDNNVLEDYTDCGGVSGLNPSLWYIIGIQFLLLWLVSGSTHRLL
T1 sequence (P54284 whole entry partner): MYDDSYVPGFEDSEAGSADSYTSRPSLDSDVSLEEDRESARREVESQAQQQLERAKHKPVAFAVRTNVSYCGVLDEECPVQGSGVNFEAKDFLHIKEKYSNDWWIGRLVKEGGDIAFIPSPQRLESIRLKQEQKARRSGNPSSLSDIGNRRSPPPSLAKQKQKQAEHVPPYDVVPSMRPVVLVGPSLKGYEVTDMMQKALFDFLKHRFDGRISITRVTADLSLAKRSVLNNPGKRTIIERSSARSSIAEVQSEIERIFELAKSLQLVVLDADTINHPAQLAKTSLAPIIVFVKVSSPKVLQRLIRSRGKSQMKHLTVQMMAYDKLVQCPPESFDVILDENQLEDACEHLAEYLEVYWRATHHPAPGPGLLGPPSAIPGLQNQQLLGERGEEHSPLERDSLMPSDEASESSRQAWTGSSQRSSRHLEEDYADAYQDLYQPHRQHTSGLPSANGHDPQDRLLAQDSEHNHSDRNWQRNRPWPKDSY

| SMILES | Inhibition of Calcium Flux in IMR-32 Cells % Inhibition at 1 μM | IC50 | Inhibition of Calcium Flux in IMR-32 Cells % Inhibition at 10 μM | also measured |
| --- | --- | --- | --- | --- |
| Cc1ccccc1NC(=O)N[C@@H](CC(C)C)C(=O)N[C@@H](Cc1ccc(OCc2ccccc2)cc1)C(=O)OC(C)(C)C (relative stereo) [Example 61, [S-(R*,R*)]-3-(4-Benzyloxy-phenyl)-2-[4-methyl-2-(3-o-tolyl-ureido)-pentanoylamino]-propionic acid tert-butyl ester] | 34% | – | – | – |
| CCOC(=O)c1ccc(NC(=O)N[C@@H](CC(C)C)C(=O)N[C@@H](Cc2ccc(OCc3ccccc3)cc2)C(=O)OC(C)(C)C)cc1 (relative stereo) [Example 77, [S-(R*,R*)]-4-(3-{1-[2-(4-Benzyloxy-phenyl)-1tert-butoxycarbonyl-ethylcarbamoyl]-3-methylbutyl}-ureido)-benzoic acid ethyl ester] | 22% | – | – | – |
| CC(C)C[C@H](NC(=O)N1CCCCCC1)C(=O)N[C@@H](Cc1ccc(OCc2ccc(C#N)cc2)cc1)C(=O)OC(C)(C)C [Example 27, [S-(R*,R*)]-2-{2-[(Azepane-1-carbonyl)-amino]-4-methyl-pentanoylamino}-3-[4-(4-cyano-benzyloxy)-phenyl]-propionic acid tert-butyl ester] | – | 0.81 µM | – | inhibition at 1 µM: 51%; inhibition at 10 µM: 92% |
| CC(C)CC(NC(=O)N1CCCCCC1)C(=O)NC(Cc1ccc(OCc2ccccc2)cc1)C(=O)N1CCCC(C)C1 (stereo not drawn) [Example 200, Azepane-1-carboxylic acid {1-[1-(4-benzyloxy-benzyl)-2-(3-methyl-piperidin-1-yl)-2-oxo-ethylcarbamoyl]-3-methyl-butyl}-amide] | – | 0.9 µM | – | inhibition at 1 µM: 53%; inhibition at 10 µM: 88% |
| CC(C)C[C@H](NC(=O)c1ccco1)C(=O)C[C@H](Cc1ccc(OCc2ccccc2)cc1)C(=O)OC(C)(C)C (relative stereo) [Example 90, [S-(R*,R*)]-2-(4-Benzyloxy-benzyl)-5-[(furan-2-carbonyl)-amino]-7-methyl-4-oxo-octanoic acid tert-butyl ester] | 37% | – | 83% | – |
| CC(C)C[C@H](NC(=O)C(C)(C)C)C(=O)N[C@@H](Cc1ccc(OCc2ccccc2)cc1)C(=O)OC(C)(C)C (relative stereo) [Example 129, [S-(R*,R*)]-3-(4-Benzyloxy-phenyl)-2-[2-(2,2-dimethyl-propionylamino)-4-methyl-pentanoylamino]-propionic acid tert-butyl ester] | – | – | 74% | – |
| CC(C)C[C@H](NC(=O)NC(C)C)C(=O)N[C@@H](Cc1ccc(OCc2ccccc2)cc1)C(=O)OC(C)(C)C (relative stereo) [Example 87, [S-(R*,R*)]-3-(4-Benzyloxy-phenyl)-2-[2-(3-isopropyl-ureido)-4-methyl-pentanoylamino]-propionic acid tert-butyl ester] | 37% | – | – | – |
| CC(C)C[C@H](NC(=O)N1CCCCCC1)C(=O)N[C@@H](Cc1ccc(OCc2ccccc2)cc1)C(=O)Nc1ccc(Oc2ccccc2)cc1 [Example 213, [S-(R*,R*)]-Azepane-1-carboxylic acid {1-[2-(4-benzyloxy-phenyl)-1-(4-phenoxy-phenylcarbamoyl)-ethylcarbamoyl]-3-methyl-butyl}-amide] | – | 2.4 µM | – | inhibition at 1 µM: 30%; inhibition at 10 µM: 33% |
| CC(C)C[C@H](NC(=O)N1CCCCCC1)C(=O)N[C@@H](Cc1ccc(OCc2ccccc2)cc1)C(=O)NC1CCNC1 (stereo partly drawn) [Example 258, [S-(R*,R*)]-Azepane-1-carboxylic acid {1-[2-(4-benzyloxy-phenyl)-1-(pyrrolidin-3-ylcarbamoyl)-ethylcarbamoyl]-3-methyl-butyl}-amide] | – | 3.6 µM | – | – |
| CC(=O)N[C@@H](CC(C)C)C(=O)N[C@@H](Cc1ccc(OCc2ccccc2)cc1)C(=O)OC(C)(C)C (relative stereo) [Example 116, [S-(R*,R*)]-2-(2-Acetylamino-4-methyl-pentanoylamino)-3-(4-benzyloxy-phenyl)-propionic acid tert-butyl ester] | – | – | 53% | – |
| CC(=O)c1ccc(NC(=O)[C@H](Cc2ccc(OCc3ccccc3)cc2)NC(=O)[C@H](CC(C)C)NC(=O)N2CCCCCC2)cc1 [Example 212, [S-(R*,R*)]-Azepane-1-carboxylic acid {1-[1-(4-acetyl-phenylcarbamoyl)-2-(4-benzyloxy-phenyl)-ethylcarbamoyl]-3-methyl-butyl}-amide] | – | 1.9 µM | – | inhibition at 1 µM: 34%; inhibition at 10 µM: 66% |
| COC(=O)C(Cc1ccccc1)NC(=O)NC(CC(C)C)C(=O)NC(Cc1ccc(OCc2ccccc2)cc1)C(=O)OC(C)(C)C (stereo not drawn) [Example 66, [S-(R*,R*)]-3-(4-Benzyloxy-phenyl)-{2-[3-(1-methoxycarbonyl-2-phenyl-ethyl)-ureido]-4-methyl-pentanoylamino}-propionic acid tert-butyl ester] ({OMe-Phe-CO}-Leu-Tyr(Bn)-OtBu; configuration not given here) | 42% | – | – | – |
| CC(C)C[C@H](NS(=O)(=O)c1cccc2nsnc12)C(=O)C[C@H](Cc1ccc(OCc2ccccc2)cc1)C(=O)OC(C)(C)C (relative stereo) [Example 102, [S-(R*,R*)]-5-(Benzo[1,2,5]thiadiazole-4-sulfonylamino)-2-(4-benzyloxybenzyl)-7-methyl-4-oxo-octanoic acid tert-butyl ester] | – | – | 75% | – |
| CC(C)(C)NC(=O)[C@H](Cc1ccc(OCc2ccccc2)cc1)NC(=O)[C@H](Cc1ccc(OC(C)(C)C)cc1)NC(=O)N1CCCCCC1 [Example 163, [S-(R*,R*)]-Azepane-1-carboxylic acid [1-[2-(4-benzyloxy-phenyl)-1-tert-butylcarbamoyl-ethylcarbamoyl]-2-(4-tert-butoxy-phenyl)-ethyl]-amide] | – | 0.49 µM | – | – |
| CCCNC(=O)[C@H](Cc1ccc(OCc2ccccc2)cc1)NC(=O)[C@H](CC(C)C)NC(=O)N1CCCCCC1 [Example 169, [S-(R*,R*)]-Azepane-1-carboxylic acid {1-[2-(4-benzyloxy-phenyl)-1-propylcarbamoyl-ethylcarbamoyl]-3-methyl-butyl}-amide] | – | 1.6 µM | – | – |
| CC(C)C[C@H](NS(=O)(=O)c1cc(Cl)cc(Cl)c1)C(=O)N[C@@H](Cc1ccc(OCc2ccccc2)cc1)C(=O)OC(C)(C)C (relative stereo) [Example 106, [S-(R*,R*)]-3-(4-Benzyloxy-phenyl)-2-[2-(3,5-dichloro-benzenesulfonylamino)-4-methylpentanoylamino]-propionic acid tert-butyl ester] | 32% | – | – | – |
| CC(C)C[C@H](NC(=O)C(F)(F)F)C(=O)N[C@@H](Cc1ccc(OCc2ccccc2)cc1)C(=O)OC(C)(C)C (relative stereo) [Example 128, [S-(R*,R*)]-3-(4-Benzyloxy-phenyl)-2-[4-methyl-2-(2,2,2-trifluoro-acetylamino)pentanoylamino]-propionic acid tert-butyl ester] | – | – | 78% | – |
| CC(C)C[C@H](NC(=O)Nc1cc(Cl)cc(Cl)c1)C(=O)N[C@@H](Cc1ccc(OCc2ccccc2)cc1)C(=O)OC(C)(C)C (relative stereo) [Example 86, [S-(R*,R*)]-3-(4-Benzyloxy-phenyl)-2-{2-[3-(3,5-dichloro-phenyl)-ureido]-4-methyl-pentanoylamino}-propionic acid tert-butyl ester] | 40% | – | – | – |
| CCCCCCNC(=O)[C@H](Cc1ccc(OCc2ccccc2)cc1)NC(=O)[C@H](CC(C)C)NC(=O)N1CCCCCC1 [Example 168, [S-(R*,R*)]-Azepane-1-carboxylic acid {1-[2-(4-benzyloxy-phenyl)-1-hexylcarbamoyl-ethylcarbamoyl]-3-methyl-butyl}-amide] | – | 0.68 µM | – | – |
| CC(C)C[C@H](NC(=O)N1CCCCCC1)C(=O)N[C@@H](Cc1ccc(OCc2ccccc2)cc1)C(=O)N1CCC(O)CC1 (relative stereo) [Example 235, [S-(R*,R*)]-Azepane-1-carboxylic acid {1-[1-(4-benzyloxy-benzyl)-2-(4-hydroxy-piperidin-1-yl)-2-oxo-ethylcarbamoyl]-3-methyl-butyl}-amide] | 20% | – | 64% | – |
